Among the data in patent US7994334B2, “Fungicide pyridinyloxy substituted phenylamidine derivatives” (Bayer Cropscience AG, priority 2005, dated 2011) are logPa values, retold here.

A short description of the series: logP by HPLC on reversed-phase column (C 18), EEC Directive 79/831 Annex V.A8. It is filed as physicochemical. Particulars: C 18, 40° C., 0.1% aqueous formic acid and acetonitrile. The method, then: Temperature: 40° C.; Mobile phases: 0.1% aqueous formic acid and acetonitrile; linear gradient from 10% acetonitrile to 90% acetonitrile.
For `CCN(C)C=Nc1cc(C)c(Oc2ccnc(C(F)(F)F)c2)cc1C` [Example 77], the logPa is recorded as 1.75. The result for `CCCN(C)C=Nc1cc(C)c(Oc2ccnc(C(F)(F)F)c2)cc1C` [Example 78] reads 1.75. Compound `Cc1cc(Oc2ccnc(C(F)(F)F)c2)c(C)cc1N=CN1CCCCC1` [Example 79] yielded a logPa of 1.78. The same measure for `Cc1cc(Oc2ccnc(C(F)(F)F)c2)c(C)cc1N=CN1CCCC1` [Example 80]: 1.69; for `C=CCN(C)C=Nc1cc(C)c(Oc2ccnc(Cl)c2)cc1C` [Example 81]: 1.74.
